# Patent US12115176B2, “Methods and compositions relating to ClbP inhibition” (PRESIDENT AND FELLOWS OF HARVARD COLLEGE, priority 2021, dated 2024)
# Read-outs that look alike come from different tables or passages of the source.
# Tests used:
# [1] = test system: FANCD2 in HeLa cell extracts; assay: Western blot for FANCD2; type: cell-based, human; settings: 0.5 μg/mL mitomycin C or 7.5 μg/mL cisplatin, 4 hours, no bacteria
# Method: Western Blot for FANCD2. Infections were carried out as described above. For conditions which involved other small molecules, no bacteria were introduced during the infection and cells were treated with either 0.5 μg/mL mitomycin C (MMC) or 7.5 μg/mL cisplatin under the same conditions for 4 hours. 20 hours after infection, cells were lysed directly in the culture wells (Lysis buffer: 50 mM Tris, (pH 8.0), 150 mM NaCl, 1% Triton X-100, 0.5% Sodium deoxycholate, 0.05% sodium dodecylsulfate, 1 mM MgSO4, SIGMAFAST Protease inhibitor mix, 100 U/mL benzonase (Millipore-Sigma). Lysates were then spun down at 16,000×g to remove particulates and the supernatant was mixed 1:1 with 2X Laemmli sample buffer (Bio-Rad) containing 50 mg/mL dithiothreitol (DTT). Samples were then heated at 70° C. for 10 minutes and run on an SDS-PAGE gel (3-8% Tris-Acetate Novex gel, Invitrogen) at 150 V for 1.5 hours at 4° C. Bands were then transferred to PVDF membranes (100 V, 1 hour at 4° C.) and blocked with 10% skim milk powder in TBST buffer at 4° C. overnight. Blots were probed sequentially with either mouse anti-actin (1.5 μg/mL) or mouse anti-FANCD2 (0.1 μg/mL) primary antibodies (Thermo Fisher Scientific, Catalog #MA511869 and MA123347), followed by a peroxidase-conjugated goat anti-mouse secondary antibody (Jackson ImmunoResearch product 115-035-003, 0.08 μg/mL). Each probing step was conducted for 90 minutes at room temperature n 2.5% skim milk powder in TBST. Before imaging, blots were washed 3×15 minutes each in TBST […]. Blots were imaged using the SuperSignal™ West Pico PLUS Chemiluminescent Substrate (Thermo Fisher Scientific) kit following the manufacturer's instructions and imaged using an Azure Biosystems c300 imager.
# Escherichia coli NC101 = assay: Bacterial MIC assay (broth dilution); type: cell-based; settings: read-out: MICs by compound
# Method: (§1) MICs of compounds against different bacterial species were determined using a modified version of a broth microdilution protocol which has been previously reported.^1 Briefly, cultures of each species indicated were inoculated from frozen stocks in deoxygenated Wilkins-Chalgren Anaerobic Medium (WCAM) inside of an anerobic chamber with an 92.5% N2/5% CO2/2.5% H2 atmosphere. Cultures were grown for 24-48 hours in a 37° C. incubator at which point an OD600-measurement was taken for each culture and was accordingly diluted in fresh WCAM to an equivalent of OD600=0.01. Diluted cultures were then distributed into the wells of a clear, flat-bottom 384-well plate and the compound of interest was added to a final DMSO concentration of 2% (or DMSO only for positive controls). […] mineral oil (Millipore Sigma) was deposited on top of the cultures and plates were covered with a clear adhesive plate seal. Plates were incubated at 37° C. for 16 hours, at which point the OD600 of all wells was recorded on a SpectraMax M2 plate reader (Molecular Devices).
# Bifidobacterium longum = assay: Bacterial MIC assay (broth dilution); type: cell-based; settings: read-out: MICs by compound
# [2] = test system: a variety of bacterial strains from common gut phyla, including E. coli; assay: Turbidity MIC assay, all strains together; type: cell-based; settings: Escherichia coli; all strains tested; upper limit tested 200 μM; read-out: MICs in liquid culture
# Source text: Compound 3 is an inhibitor of colibactin-associated genotoxicity. Since colibactin is produced in the context of the gut microbiota, it is essential to understand how 3 can affect other members of this community and whether it remains an effective inhibitor under these conditions. […] A turbidity assay was used to determine minimum inhibitory concentrations (MICs) in liquid culture of 1-4 against a variety of bacterial strains from common gut phyla, including E. coli (Table 3).
# as §1
# Klebsiella oxytoca = assay: Bacterial MIC assay (broth dilution); type: cell-based; settings: read-out: MICs by compound
# Enterococcus faecalis = assay: Bacterial MIC assay (broth dilution); type: cell-based; settings: read-out: MICs by compound
# purified ClbP = purified ClbP (Escherichia coli, UniProt Q0P7K6); assay: ClbP fluorescence activity assay (in vitro); type: biochemical, Escherichia coli CFT073; settings: for speed of reaching maximum potency, in words: slow-binding inhibition assay, 100 nM
# Source text: Constructs and protein purification for in vitro assays. ClbP constructs described in this publication were derived from a previously described plasmid containing the Escherichia coli CFT073 ClbP sequence (GenBank ID: NP_754344.1) inserted between the NdeI and XhoI restriction sites of pET29b (Addgene plasmid #48244).^14 All in vitro experiments used a construct bearing a C-terminal 10×His tag. This longer polyhistidine-tag was obtained by extension of the previously described 6×His tag through site-directed mutagenesis. All site-directed mutations were introduced using the Quikchange mutagenesis protocol (Stratagene) and confirmed by Sanger DNA sequencing of the whole open reading frame. Plasmids were transformed into chemically competent C41(DE3) (Lucigen) cells and proteins were isolated as previously described.^34
# ClbP fluorescence activity assay (in vitro). Assays were performed in a buffer containing 50 mM Tris, 200 mM NaCl, 0.02% w/v DDM at pH 8.0 with 25 nM purified ClbP and 25 μM fluorogenic substrate in a total volume of 20 μL.^34 Purified ClbP was defrosted on ice from stocks stored at −80° C. Stocks were diluted to 50 nM enzyme in assay buffer in the wells of a black, flat-bottom 384-well plate and the appropriate inhibitor in DMSO or DMSO was added to a final concentration of 1%. For experiments testing different inhibitor concentrations, reactions were allowed to sit for 1 hour at room temperature. For experiments testing different preincubation times, the inhibitor in DMSO was added to each reaction X minutes before initiating the reaction, where X is the time indicated on the x-axis for that sample. For experiments to test whether hydrolysis of the boronic ester was rate-limiting, the inhibitor was added to buffer with no enzyme present and allowed to sit at room temperature for the time indicated before adding the enzyme. In all cases, reactions were initiated by the addition of 10 μL, of buffer containing the 50 μM fluorogenic substrate to achieve a final concentration of 25 μM and pipetting once with a multichannel pipette to mix. Reaction progress was monitored in a plate reader (Bio-Tek Synergy HTX multimode plate reader) with an excitation filter of 360/40 nm and an emission filter of 440/20 nm. “% activity” was determined based on the measured relative fluorescence units (RFU) of each condition after 1 hour using the following formula: […]
# [3] = biological target: E. coli BL21 overexpressing ClbP (Escherichia coli, UniProt Q0P7K6); assay: ClbP fluorescence activity assay (live cells); type: cell-based
# Method: ClbP fluorescence activity assay (live cells). One 5 mL starter culture each E. coli BL21 pET-29b-ClbP and pET-29b-ClbP-S95A were inoculated from frozen stocks and grown overnight at 37° C. in LB medium supplemented with 50 μg/ml kanamycin (LB+kan). Overnight cultures were diluted 1:100 in fresh LB+kan and incubated at 37° C. to an OD600 of 0.3, at which point protein expression was induced by the addition of 500 μM isopropyl β-D-1-thiogalactopyranoside (IPTG) and cultures were moved to 15° C. for 4 hours. Cultures were then aliquoted in a black 384-well plate and the appropriate concentration of inhibitor was added as a DMSO stocks to a final concentration of 1% DMSO in a volume of 30 μL. Reactions were initiated by the addition of 10 μL of LB+kan+IPTG containing the fluorogenic substrate (final concentration=100 μM). Plastes were incubated at 25° C. with intermittent shaking while taking regular fluorescence measurements in a Bio-Tek Synergy HTX multimode plate reader with an excitation filter of 360/40 nm and an emission filter of 440/20 nm. “% activity” was determined based on the formula above using RFU measurements after 7 hours.
# Lactobacillus rhamnosus = assay: Bacterial MIC assay (broth dilution); type: cell-based; settings: Lacticaseibacillus rhamnosus, read-out: MICs by compound
# ClbP = assay: LC-MS quantitation of N-myristoyl-D-Asn produced by pks+ E. coli; type: cell-based, E. coli BW25113 BACpks; settings: pks+ E. coli (BW pks), versus DMSO
# Method: LC-MS quantitation of N-myristoyl-D-Asn produced by pks^+ E. coli. One 5 mL starter culture each of E. coli BW25113 BACpks and E. coli BW25113 BACpksΔclbP was inoculated from frozen stocks and grown overnight at 37° C. in LB medium supplemented with 35 μg/ml chloramphenicol (LB+cam). Overnights were diluted 1:100 in fresh LB+cam+1% DMSO with the appropriate concentration of inhibitor and grown for 20 hours at 37° C. in a deep well plate in a shaking incubator. A 500 μL aliquot was taken from each sample, flash frozen in liquid nitrogen and lyophilized to dryness. Lyophilized pellets were extracted with 500 μL LC-MS grade methanol which contained 100 nM d27-N-myristoyl-D-asparagine as an internal standard, prepared as previously described, and vortexed for 30 seconds. After centrifugation at 16,500×g for 10 minutes in a tabletop microcentrifuge, supernatants were transferred to fresh 1.5 mL tubes and stored at −20° C. overnight. Samples were centrifuged again, and the supernatants analyzed by LC-MS/MS on a Waters Xevo TQ-S UPLC-triple quadrupole mass spectrometer using an Agilent Poroshell 120 EC-C18 column (2.7 μm, 4.6 mm×50 mm). […]
# [4] = anaerobic, OD600 after 15 hours
"MIC (Escherichia coli NC101; Escherichia coli NC101, anaerobic, OD600 after 15 hours) [µM]",MIC (Bifidobacterium longum; [4]) [µM],MIC (Klebsiella oxytoca; [4]) [µM],MIC (Enterococcus faecalis; [4]) [µM],"MIC (Lactobacillus rhamnosus; Lactobacillus rhamnosus, anaerobic, OD600 after 15 hours) [µM]",Compound,abundance of FANCD2-Ub in HeLa cells [1],"MIC (Escherichia coli NC101; Escherichia coli, NC101, 15 h) [µM]",MIC (Bifidobacterium longum; 15 h) [µM],MIC [2] [µM],MIC (Klebsiella oxytoca; 15 h) [µM],MIC (Enterococcus faecalis; 15 h) [µM],IC50 (purified ClbP) [nM],"speed of reaching maximum potency, in words (purified ClbP)",IC50 [3] [nM],MIC (Lactobacillus rhamnosus; 15 h) [µM],quantity of N-myristoyl-D-Asn prodrug released (ClbP)
,,,,,"N.N.[Cl][Pt][Cl] [cisplatin, reference compound]",increase in abundance of FANCD2-Ub,,,,,,,,,,
,,,,,CC1(C)OB([C@@H](CC(N)=O)NC(=O)c2ccc3ccccc3c2)OC1(C)C [Compound 2],,> 200,> 200,> 200,> 200,> 200,34,achieved their maximum potency faster than compound 4,7.2,> 200,
,,,,,CCCCCC(=O)N[C@H](CC(N)=O)B1OC(C)(C)C(C)(C)O1 [Compound 1],,> 200,> 200,> 200,> 200,> 200,40,,5.6,> 200,
,,,,,"CO[C@@]12[C@H](COC(N)=O)C3=C(C(=O)C(C)=C(N)C3=O)N1C[C@@H]1N[C@@H]12 [mitomycin C, reference compound]",increase in abundance of FANCD2-Ub,,,,,,,,,,
25,12.5,6.25,50,25,"O=C(N[C@H](CO)[C@H](O)c1ccc([N+](=O)[O-])cc1)C(Cl)Cl [CAM, Chloramphenicol, reference compound]",,,,,,,,,,,
,,,,,CC1(C)OB([C@@H](CC(N)=O)NC(=O)c2ccccc2)OC1(C)C [Compound 4],,> 200,> 200,> 200,> 200,> 200,69,showed a significant lag,27,> 200,slightly lower potency than the others
